Reference: patent US20250051281A1, “CRYSTALLINE FORM OF AROMATIC RING DERIVATIVE, AND PREPARATION METHOD THEREFOR AND APPLICATION THEREOF” (SHANGHAI JEMINCARE PHARMACEUTICAL CO., LTD, priority 2021, published 2025)

Tests used:
Type in all cases: physicochemical
[1] = Stability test of crystal forms under high temperature, high humidity and light exposure (HPLC purity); settings: for Purity after 30 days at a temperature of 25° C. with a relative humidity of 90% ± 5%: 90% ± 5% RH; for Purity after 30 days at a temperature of 25° C. with a relative humidity of 90% ± 5% / Purity after 30 days at high temperature (60° C.) / Purity after 30 days at a light intensity of 4500 Lx ± 500 Lx / Initial purity: HPLC purity; for Initial purity: before stress conditions
Text: (§1) The high-performance liquid chromatography (HPLC) analysis method used in the present disclosure is as follows: an Agilent 1260 was used to test the purity and stability of the sample under the conditions shown in Table 18.
(§2) Consequently, the inventors selected four crystal forms with good reproducibility and ease of purification: crystal forms A, B, G, and Q. These crystal forms were subjected to stability tests under identical conditions of high temperature, high humidity, and light exposure.

[2] = Changes in shape of crystal forms under high temperature, high humidity and light exposure (Table 26)
Text: as §2

[3] = Purity of crystal forms at storage conditions of 25° C. and 40° C. (Table 27)
Experimental: as §1
The purity of crystal forms A, B, G, and Q, under identical mass and packaging conditions, was investigated at storage conditions of 25° C. and 40° C., as shown in Table 27.

[4] = Stability verification of crystal form G in different solvents (XRPD form after slurry or vapour exposure); settings: room temperature, dried under vacuum at 50° C. for 2 hours
Experimental: The X-ray powder diffraction analysis method used in the present disclosure is as follows: X-ray powder diffraction testing was conducted at room temperature using a Bruker D2 PHASER diffractometer (300 W low-power X-ray emitter). During the test, a silicon wafer was used to sustain the sample powder, and an X-ray Cu (Kα) tube was used, with a Kα2/Kα1 intensity ratio of 0.50 (1.54439 Å/1.5406 Å). The instrument was set to 30 kV and 10 mA, with a step size of 0.02° (2θ), a scanning time of 0.15 s per step, for a total of 1837 steps.
Method 1: The crystal form G (50 mg) was added to 0.5 mL of the corresponding solvent (the solvent may be EtOH, H2O, or a mixture of EtOH/H2O in the ratios of 970/30, 927/73, 855/145, 704/296, v/v).
Method 2: The crystal form G (15 mg) was placed in a 4 mL glass vial, which was then placed inside a 20 mL glass vial containing 3 mL of a volatile solvent (which may be MeOH or EtOH). The 20 mL glass vial was tightly capped and left to stand at room temperature for approximately one week.

[5] = High Temperature (60° C.), 5 Days
[6] = High Temperature (60° C.), 10 Days
[7] = High Temperature (60° C.), 30 Days
[8] = Light intensity of 4500 Lx ± 500 Lx, 5 Days
[9] = Light intensity of 4500 Lx ± 500 Lx, 10 Days
[10] = Light intensity of 4500 Lx ± 500 Lx, 30 Days
[11] = Temperature of 25° C., relative humidity of 90% ± 5%, 5 Days
[12] = Temperature of 25° C., relative humidity of 90% ± 5%, 10 Days
[13] = Temperature of 25° C., relative humidity of 90% ± 5%, 30 Days

| Structure (SMILES) | Purity after 30 days at a temperature of 25° C. with a relative humidity of 90% ± 5% [1] | Purity after 30 days at high temperature (60° C.) [1] | Purity after 30 days at a light intensity of 4500 Lx ± 500 Lx [1] | Initial purity [1] | Shape (appearance) [2, 5] | Shape (appearance) [2, 6] | Shape (appearance) [2, 7] | Shape (appearance) ([2]; Initial State) | Shape (appearance) [2, 8] | Shape (appearance) [2, 9] | Shape (appearance) [2, 10] | Shape (appearance) [2, 11] | Shape (appearance) [2, 12] | Shape (appearance) [2, 13] | Purity on storage ([3]; 25° C., 0 Days) | Purity on storage ([3]; 25° C., 15 Days) | Purity on storage ([3]; 25° C., 30 Days) | Purity on storage ([3]; 25° C., 45 Days) | Purity on storage ([3]; 25° C., 60 Days) | Purity on storage ([3]; 25° C., 90 Days) | other results |
| --- | --- | --- | --- | --- | --- | --- | --- | --- | --- | --- | --- | --- | --- | --- | --- | --- | --- | --- | --- | --- | --- |
| Cc1c(CCC(=O)O)[nH]c2ccc(OCc3ccc(C4CCCC4)c(C(F)(F)F)c3)cc12 [Crystal form A] | 98.49% | 94.57% | 94.45% | 99.28% | Off-white | Pale yellow | Yellow solid | Off-white | Off-white | Pale yellow | Yellow solid | Off-white | Off-white | Off-white | 99.03% | 98.91% | 98.93% | 98.87% | 98.85% | 98.73% | Purity on storage ([3]; 40° C., 0 Days): 99.03%; Purity on storage ([3]; 40° C., 15 Days): 98.73%; Purity on storage ([3]; 40° C., 30 Days): 98.42%; Purity on storage ([3]; 40° C., 45 Days): 98.30%; Purity on storage ([3]; 40° C., 60 Days): 98.15%; Purity on storage ([3]; 40° C., 90 Days): 97.69% |
| Cc1c(CCC(=O)O)[nH]c2ccc(OCc3ccc(C4CCCC4)c(C(F)(F)F)c3)cc12 [Crystal form B] | 98.50% | 97.21% | 94.55% | 99.44% | Off-white | Off-white | Off-white | Off-white | Off-white | Pale yellow | Yellow solid | Off-white | Off-white | Off-white | 99.14% | 99.05% | 99.00% | 98.93% | 98.94% | 98.86% | Purity on storage ([3]; 40° C., 0 Days): 99.14%; Purity on storage ([3]; 40° C., 15 Days): 98.88%; Purity on storage ([3]; 40° C., 30 Days): 98.73%; Purity on storage ([3]; 40° C., 45 Days): 98.68%; Purity on storage ([3]; 40° C., 60 Days): 98.66%; Purity on storage ([3]; 40° C., 90 Days): 98.40% |
| Cc1c(CCC(=O)[O][Ca][O]C(=O)CCc2[nH]c3ccc(OCc4ccc(C5CCCC5)c(C(F)(F)F)c4)cc3c2C)[nH]c2ccc(OCc3ccc(C4CCCC4)c(C(F)(F)F)c3)cc12 [Crystal form G] | 98.78% | 99.12% | 96.02% | 99.60% | Off-white solid | Off-white solid | Off-white solid | Off-white solid | Off-white solid | Pale yellow | Yellow solid | Off-white solid | Off-white solid | Off-white solid | 99.48% | 99.42% | 99.43% | 99.43% | 99.41% | 99.36% | Stability under high temperature, high humidity, and light exposure conditions compared to the other crystal forms ([1]; summary of Tables 25 and 26, versus crystal forms A, B, Q): higher stability; Crystal form obtained after stirring in solvent ([4]; EtOH, H2O or EtOH/H2O mixtures, 4 days): obtain the crystal form G; Crystal form obtained after exposure to volatile solvent vapour ([4]; MeOH or EtOH vapour, approximately one week): obtain the crystal form G; Purity on storage ([3]; 40° C., 0 Days): 99.48%; Purity on storage ([3]; 40° C., 15 Days): 99.28%; Purity on storage ([3]; 40° C., 30 Days): 99.27%; Purity on storage ([3]; 40° C., 45 Days): 99.24%; Purity on storage ([3]; 40° C., 60 Days): 99.16%; Purity on storage ([3]; 40° C., 90 Days): 99.01%; Stability when stored at 25° C. and 40° C. for 90 days ([3]; summary of Table 27, 90 days): higher stability |
